Patent publication US20110158930A1, “METHOD FOR TREATMENT OF IRRITABLE BOWEL SYNDROME” (ASTELLAS PHARMA INC., priority 2008, published 2011)

Key:
[1] = tested on: spontaneous defecation in mice; experiment: Spontaneous defecation in mice (total stool weight); type: in vivo, mouse; details: ddy mice
Procedure: (§1) Ramosetron hydrochloride, polycarbophil calcium (Astellas Pharma, Inc.) and 5-HT creatinine sulfate (Wako Pure Chemical Industries Ltd.) were used. Ramosetron was dissolved and diluted with distilled water. Polycarbophil was prepared by decalcification of polycarbophil calcium according to a reported method (Yamada et al., Iyakuhin Kenkyu 1997; 28: 23-32), and suspended and diluted with distilled water. In this experiment, ramosetron was used and expressed as its hydrochloride form. All the test substances were orally administered in a dose of 12 mL/kg. In combined administration of ramosetron and polycarbophil, a mixed solution of the two drugs was prepared and this was orally administered.
In this experiment, male ddy mice (Nippon SLC, 5-week age) were used. Spontaneous defecation was measured individually in separate cages with a wire flooring under free drinking and free feeding condition. […]
The effect of single administration of ramosetron or polycarbophil alone was investigated with the following group composition, and the total stool weight in 2 hours after administration of each test substance was measured (n=10 in every group): Distilled water administration group (control group); ramosetron administration group (10, 30 and 100 μg/kg); polycarbophil administration group (100, 300 and 1,000 mg/kg). […]
All the results were statistically analyzed using Statistical Analysis System ver. […]

[2] = tested on: 5-HT induced diarrhea in mice; experiment: 5-HT induced diarrhea in mice; type: in vivo, mouse
Procedure: as §1
Each test substance was orally administered to male ICR mice (9-week age, Clea Japan, Inc.), and after 2 hours, 5-HT (3 mg/kg) was intraperitoneally administered (Miyata et al., J. Pharmacol. Exp. Ther. 1992; 261: 297-303). The mice were put individually in separate cages, and the condition of the stool excreted within 3 hours after the 5-HT administration was observed. The occurrence of diarrhea was defined in case where the excreted stool condition was loose stool (wet pasty stool) or watery stool (amorphous muddy stool). […]
All the results were statistically analyzed using Statistical Analysis System ver. […] In this experiment, all the data were expressed as two significant figures. In the investigation using the diarrheal models, the incidence of diarrhea was calculated in each group, then the significance was evaluated according to the Fisher's exact test, and if desired, the significance level was corrected according to the Bonferroni's method for consideration of multiplicity (the case of P<0.05 or P<0.05/3 was given significance). In the experiments of spontaneous defecation, the mean value of total stool weight±SEM was calculated in every group, and the significance was evaluated according to Student's t-test (between two groups) or Dunnett's multiple comparison test (between multiple groups) (the case of P<0.05 was given significance).

[3] = tested on: restraint stress induced diarrhea in rats; experiment: Restraint stress induced diarrhea in rats; type: in vivo, rat
Procedure: Ramosetron hydrochloride, polycarbophil calcium (Astellas Pharma, Inc.) and 5-HT creatinine sulfate (Wako Pure Chemical Industries Ltd.) were used. Ramosetron was dissolved and diluted with distilled water. Polycarbophil was prepared by decalcification of polycarbophil calcium according to a reported method (Yamada et al., Iyakuhin Kenkyu 1997; 28: 23-32), and suspended and diluted with distilled water. In this experiment, ramosetron was used and expressed as its hydrochloride form. All the test substances were orally administered in a dose of 12 mL/kg. In combined administration of ramosetron and polycarbophil, a mixed solution of the two drugs was prepared and this was orally administered. Male Wistar rats (13 to 14-week age, Japan SLC Inc.) that had been fasted overnight were stressed by confinement in a restraint stress cage (KN-468, Natsume Seisakusho Co., Ltd.) (Hirata et al., Neurogastroenterol. Motil. 2008; 20: 557-565). The condition of the stool excreted within 3 hours after the initiation of the restraint stress was observed, and the occurrence of diarrhea was defined in case where the excreted stool condition was wet, amorphous and muddy stool. […] All the results were statistically analyzed using Statistical Analysis System ver. […] In this experiment, all the data were expressed as two significant figures. In the investigation using the diarrheal models, the incidence of diarrhea was calculated in each group, then the significance was evaluated according to the Fisher's exact test, and if desired, the significance level was corrected according to the Bonferroni's method for consideration of multiplicity (the case of P<0.05 or P<0.05/3 was given significance). In the experiments of spontaneous defecation, the mean value of total stool weight±SEM was calculated in every group, and the significance was evaluated according to Student's t-test (between two groups) or Dunnett's multiple comparison test (between multiple groups) (the case of P<0.05 was given significance).

Cn1cc(C(=O)[C@@H]2CCc3nc[nH]c3C2)c2ccccc21 [ramosetron, (−)-(R)-5-[(1-methyl-1H-indol-3-yl)carbonyl]-4,5,6,7-tetrahydro-1H-benzimidazole]
total stool weight in 2 hours vs distilled water group ([1]; ramosetron 100 μg/kg p.o. single administration alone, n=10, Dunnett's test): significant reduction in the total stool weight | effect on spontaneous defecation (total stool weight in 2 hours) ([1]; ramosetron 10 to 100 μg/kg p.o. single administration alone, n=10): dose-dependently inhibited spontaneous defecation | incidence of diarrhea ([2]; ramosetron 30 μg/kg p.o. alone, 2 hours before 5-HT 3 mg/kg i.p., stool within 3 hours, ICR mice, n=24): 58% | effect on 5-HT induced diarrhea ([2]; ramosetron 10 to 100 μg/kg p.o. alone, n=12): dose-dependently inhibited | significance of inhibition of 5-HT induced diarrhea vs distilled water ([2]; ramosetron 30 and 100 μg/kg p.o. alone, n=12, Fisher's exact test): significant inhibitory effect | incidence of diarrhea ([3]; ramosetron 0.3 μg/kg p.o. alone, 4 hours before restraint stress, stool within 3 hours, Wistar rats, n=24): 46% | effect on restraint stress induced diarrhea ([3]; ramosetron 0.1 to 1 μg/kg p.o. alone, n=12): dose-dependently inhibited | significance of inhibition of restraint stress induced diarrhea vs distilled water ([3]; ramosetron 0.3 and 1 μg/kg p.o. alone, n=12, Fisher's exact test): significant inhibitory effect
